Measured values: ChEMBL document CHEMBL4261617, “Design and synthesis of a novel series of non-nucleoside HIV-1 inhibitors bearing pyrimidine and N-substituted aromatic piperazine” (Bioorg Med Chem Lett, 2018)

Experiments:
[1] = test system: Human immunodeficiency virus 2; experiment: Antiviral activity against HIV2 ROD infected in human MT4 cells assessed as protection against virus-induced cytopathic effect after 4 days by MTT assay; assay type: functional, organism-based; details: Human immunodeficiency virus 2, ISOLATE ROD, MT4, 96 h
[2] = Selectivity index, ratio of CC50 for human MT4 cells to EC50 for wild-type HIV1 3B infected in human MT4 cells; assay type: toxicity, cell-based; details: MT4 cells infected with wild-type HIV1 3B, read-out: Ratio CC50/EC50
[3] = test system: Human immunodeficiency virus 1; experiment: Antiviral activity against wild-type HIV1 3B infected in human MT4 cells assessed as protection against virus-induced cytopathic effect after 4 days by MTT assay; assay type: functional, organism-based; details: Human immunodeficiency virus 1, 3B, MT4, 96 h
[4] = Cytotoxicity against human MT4 cells assessed as reduction in cell viability after 4 days by MTT assay; assay type: cell-based
[5] = test system: Human immunodeficiency virus 1; experiment: Antiviral activity against HIV1 RES056 harboring K103N/Y181C double mutant infected in human MT4 cells assessed as protection against virus-induced cytopathic effect after 4 days by MTT assay; assay type: functional, organism-based; details: Human immunodeficiency virus 1, RES056, MT4, 96 h
[6] = molecular target: Human immunodeficiency virus type 1 reverse transcriptase (Human immunodeficiency virus 1, UniProt Q72547); experiment: Inhibition of recombinant wild-type HIV1 GST-fused reverse transcriptase p66/p51 RNA-dependent DNA polymerase activity expressed in Escherichia coli assessed as reduction in biotin-dUTP incorporation using poly(rA)/oligo(dT)16 as template/primer after 40 mins by PicoGreen dye based spectrofluorometric analysis
[7] = Solubility of the compound in DMSO at 125 ug/ml; assay type: physicochemical

Structure (SMILES) | EC50 [1] [µM] | selectivity ratio [2] | EC50 [3] [µM] | CC50 at 96 h [4] [µM] | EC50 [5] [µM] | IC50 [6] [µM] | solubility [7]
CCOC(=O)c1cnc(N2CCN(Cc3cccc(OC)c3)CC2)nc1Oc1c(C)cc(-c2ccc(C#N)cc2)cc1C | > 125 | 1 | > 125 | > 125 |  |  | 
CCOC(=O)c1cnc(N2CCN(Cc3ccc(Br)cc3)CC2)nc1Oc1c(C)cc(-c2ccc(C#N)cc2)cc1C | > 125 | 1 | > 125 | > 125 |  |  | 
CCOC(=O)c1cnc(N2CCN(Cc3ccc(F)cc3)CC2)nc1Oc1c(C)cc(-c2ccc(C#N)cc2)cc1C | > 118 | 1 | ≥ 120 | > 118 | > 118 | > 120 | Insoluble
CCOC(=O)c1cnc(N2CCN(Cc3ccc(C(F)(F)F)cc3)CC2)nc1Oc1c(C)cc(-c2ccc(C#N)cc2)cc1C | > 125 | 1 | > 125 | > 125 |  |  | 
CCOC(=O)c1cnc(N2CCN(Cc3ccccc3F)CC2)nc1Oc1c(C)cc(-c2ccc(C#N)cc2)cc1C | > 125 | 1 | > 125 | > 125 |  |  | 
CCOC(=O)c1cnc(N2CCN(Cc3cccc([N+](=O)[O-])c3)CC2)nc1Oc1c(C)cc(-c2ccc(C#N)cc2)cc1C | > 125 | > 4 | 31.5 | > 125 | > 125 | 114 | Insoluble
CCOC(=O)c1ccc(CN2CCN(c3ncc(C(=O)OCC)c(Oc4c(C)cc(-c5ccc(C#N)cc5)cc4C)n3)CC2)cc1 | > 125 | 1 | > 125 | > 125 |  |  | 
CCOC(=O)c1cnc(N2CCN(Cc3cc(F)cc(F)c3)CC2)nc1Oc1c(C)cc(-c2ccc(C#N)cc2)cc1C | > 125 | 1 | > 125 | > 125 |  |  | 
CCOC(=O)c1cnc(N2CCN(Cc3ccccc3C#N)CC2)nc1Oc1c(C)cc(-c2ccc(C#N)cc2)cc1C | > 125 | 1 | > 125 | > 125 |  |  | 
CCOC(=O)c1cnc(N2CCN(Cc3ccc(C#N)cc3)CC2)nc1Oc1c(C)cc(-c2ccc(C#N)cc2)cc1C | > 125 | 1 | > 125 | > 125 |  |  | 
CCOC(=O)c1cnc(N2CCN(Cc3ccc(C(=O)OC)cc3)CC2)nc1Oc1c(C)cc(-c2ccc(C#N)cc2)cc1C | > 125 | 1 | > 125 | > 125 |  |  | 
CCOC(=O)c1cnc(N2CCN(Cc3cccc(C(=O)OC)c3)CC2)nc1Oc1c(C)cc(-c2ccc(C#N)cc2)cc1C | > 125 | 1 | > 125 | > 125 |  |  | 
CCOC(=O)c1cnc(N2CCN(Cc3ccc(C(N)=O)cc3)CC2)nc1Oc1c(C)cc(-c2ccc(C#N)cc2)cc1C | > 66.5 | < 1 | > 66.5 | 66.5 | > 66.5 | ≥ 113 | Insoluble
CCOC(=O)c1cnc(N2CCN(Cc3ccc(S(N)(=O)=O)cc3)CC2)nc1Oc1c(C)cc(-c2ccc(C#N)cc2)cc1C | > 7.93 | 1 | ≥ 24.9 | ≥ 7.93 | > 7.93 | 63.5 | Insoluble
CCOC(=O)c1cnc(N2CCN(Cc3cccc(C(N)=O)c3)CC2)nc1Oc1c(C)cc(-c2ccc(C#N)cc2)cc1C | > 14.8 | 4 | 3.36 | 14.8 | > 14.8 | ≥ 93.1 | Insoluble
CCOC(=O)c1cnc(N2CCN(Cc3cccc(C(F)(F)F)c3)CC2)nc1Oc1c(C)cc(-c2ccc(C#N)cc2)cc1C | > 125 | 1 | > 125 | > 125 |  |  | 
CCOC(=O)c1cnc(N2CCN(Cc3cc(C)cc(C)c3)CC2)nc1Oc1c(C)cc(-c2ccc(C#N)cc2)cc1C | > 125 | 1 | > 125 | > 125 |  |  | 
CCOC(=O)c1cnc(N2CCN(Cc3cccc(F)c3)CC2)nc1Oc1c(C)cc(-c2ccc(C#N)cc2)cc1C | > 125 | 1 | > 125 | > 125 |  |  | 
CCOC(=O)c1cnc(N2CCN(Cc3ccccc3C(F)(F)F)CC2)nc1Oc1c(C)cc(-c2ccc(C#N)cc2)cc1C | > 125 | 1 | > 125 | > 125 |  |  | 
CCOC(=O)c1cnc(N2CCN(Cc3ccccc3C(=O)OC)CC2)nc1Oc1c(C)cc(-c2ccc(C#N)cc2)cc1C | > 125 | 1 | > 125 | > 125 |  |  | 
CCOC(=O)c1cnc(N2CCN(Cc3ccccc3[N+](=O)[O-])CC2)nc1Oc1c(C)cc(-c2ccc(C#N)cc2)cc1C | > 78.7 | 1 | > 78.7 | ≥ 78.7 |  |  | 
CCOC(=O)c1cnc(N2CCN(Cc3cccc(C#N)c3)CC2)nc1Oc1c(C)cc(-c2ccc(C#N)cc2)cc1C | > 125 | 1 | > 125 | > 125 |  |  | 
CCOC(=O)c1cnc(N2CCN(Cc3ccc(S(C)(=O)=O)cc3)CC2)nc1Oc1c(C)cc(-c2ccc(C#N)cc2)cc1C | > 125 | 1 | > 125 | > 125 |  |  | 
Cc1ccnc2c1NC(=O)c1cccnc1N2C1CC1 [NEVIRAPINE] |  |  | 0.1 | > 4 | > 4 |  | 
CCOC(=O)c1cnc(N2CCN(Cc3ccc([N+](=O)[O-])cc3)CC2)nc1Oc1c(C)cc(-c2ccc(C#N)cc2)cc1C | > 125 | 1 | > 125 | > 125 |  |  | 
Cc1cc(C#N)cc(C)c1Oc1nc(Nc2ccc(C#N)cc2)nc(N)c1Br [ETRAVIRINE] |  |  | 0.0022 | > 2 | 0.015 |  | 
CCOC(=O)c1cnc(N2CCN(Cc3cccc(Br)c3)CC2)nc1Oc1c(C)cc(-c2ccc(C#N)cc2)cc1C | > 125 | 1 | > 125 | > 125 |  |  | 
CCOC(=O)c1cnc(N2CCN(Cc3ccccc3Br)CC2)nc1Oc1c(C)cc(-c2ccc(C#N)cc2)cc1C | > 125 | 1 | > 125 | > 125 |  |  | 
